Data set [1] deals with T1, Thymidine kinase, cytosolic (Homo sapiens) (UniProt P04183).
T1 sequence (whole entry): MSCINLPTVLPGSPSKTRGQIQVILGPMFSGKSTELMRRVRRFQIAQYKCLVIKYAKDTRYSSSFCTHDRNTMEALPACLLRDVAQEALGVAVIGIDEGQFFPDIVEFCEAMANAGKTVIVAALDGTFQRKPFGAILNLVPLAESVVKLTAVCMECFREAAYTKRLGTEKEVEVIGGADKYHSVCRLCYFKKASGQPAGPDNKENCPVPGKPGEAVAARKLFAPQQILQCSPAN
Description: Ratio of Vmax to Km for human TK1 relative to […].

Data set [2] addresses T2, Thymidine kinase (Ureaplasma parvum serovar 3 (strain ATCC 700970)) (UniProt Q9PPP5).
T2 sequence (whole entry): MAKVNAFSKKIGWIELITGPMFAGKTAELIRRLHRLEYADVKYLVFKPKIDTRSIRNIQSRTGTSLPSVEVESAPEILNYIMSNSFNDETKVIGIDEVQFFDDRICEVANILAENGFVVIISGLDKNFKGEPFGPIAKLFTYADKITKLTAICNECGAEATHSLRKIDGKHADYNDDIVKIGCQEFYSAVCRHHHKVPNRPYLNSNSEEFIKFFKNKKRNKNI
Description: Activity of Ureaplasma parvum thymidine kinase relative to dThd.

The target in data set [3] is T2, Thymidine kinase (Ureaplasma parvum serovar 3 (strain ATCC 700970)). In words: Ratio of Vmax to Km for Ureaplasma parvum thymidine kinase relative to dThd.
For data set [4], the target named is T1, Thymidine kinase, cytosolic (Homo sapiens). In words: Activity of human TK1 relative to ATP. Set-up: concentration or dose not given beside the values.
The target in data set [5] is T3, Thymidine kinase, cytosolic (Homo sapiens, UniProt P04183).
T3 sequence (P04183 whole entry): T1 sequence (whole entry)
In words: Inhibition of human TK1 by liquid scintillation counting.

The next data set has as its target T4, Thymidine kinase (Ureaplasma parvum serovar 3 (strain ATCC 700970), UniProt Q9PPP5).
T4 sequence (Q9PPP5 whole entry): T2 sequence (whole entry)
In words: Inhibition of Ureaplasma parvum thymidine kinase by liquid scintillation counting.

Substrate in data set [6]: CCCCCc1cn([C@H]2C[C@H](n3cc(C)c(=O)[nH]c3=O)O[C@@H]2CO)nn1
Particulars: Ureaplasma parvum.

Substrate in data set [7]: Cc1cn([C@H]2C[C@H](n3cc(-c4ccccc4)nn3)[C@@H](CO)O2)c(=O)[nH]c1=O
Particulars: Ureaplasma parvum.

Substrate in data set [8]: Cc1cn([C@H]2C[C@H](n3cc(Cc4ccccc4)nn3)[C@@H](CO)O2)c(=O)[nH]c1=O
Particulars: Ureaplasma parvum.

Substrate in data set [9]: Cc1cn([C@H]2C[C@H](n3cc(-c4ccccn4)nn3)[C@@H](CO)O2)c(=O)[nH]c1=O
Particulars: Ureaplasma parvum.

Substrate in data set [10]: Cc1cn([C@H]2C[C@H](n3cc(C(C)(C)C)nn3)[C@@H](CO)O2)c(=O)[nH]c1=O
Particulars: Ureaplasma parvum.

Substrate in data set [11]: CC(=O)OCc1cn([C@H]2C[C@H](n3cc(C)c(=O)[nH]c3=O)O[C@@H]2CO)nn1
Particulars: Ureaplasma parvum.

Substrate in data set [12]: Cc1cn([C@H]2C[C@H](N=[N+]=[N-])[C@@H](CO)O2)c(=O)[nH]c1=O
Particulars: Ureaplasma parvum.

Substrate in data set [13]: CCCc1cn([C@H]2C[C@H](n3cc(C)c(=O)[nH]c3=O)O[C@@H]2CO)nn1
Particulars: Ureaplasma parvum.

Substrate in data set [14]: Cc1cn([C@H]2C[C@H](n3cc(CCc4ccccc4)nn3)[C@@H](CO)O2)c(=O)[nH]c1=O
Particulars: Ureaplasma parvum.

Substrate in data set [15]: CCCCCc1cn([C@H]2C[C@H](n3cc(C)c(=O)[nH]c3=O)O[C@@H]2CO)nn1
Particulars: Homo sapiens.

Substrate in data set [16]: Cc1cn([C@H]2C[C@H](n3cc(-c4ccccc4)nn3)[C@@H](CO)O2)c(=O)[nH]c1=O
Particulars: Homo sapiens.

Substrate in data set [17]: Cc1cn([C@H]2C[C@H](n3cc(Cc4ccccc4)nn3)[C@@H](CO)O2)c(=O)[nH]c1=O
Particulars: Homo sapiens.

Substrate in data set [18]: Cc1cn([C@H]2C[C@H](n3cc(-c4ccccn4)nn3)[C@@H](CO)O2)c(=O)[nH]c1=O
Particulars: Homo sapiens.

Substrate in data set [19]: Cc1cn([C@H]2C[C@H](n3cc(C(C)(C)C)nn3)[C@@H](CO)O2)c(=O)[nH]c1=O
Particulars: Homo sapiens.

Substrate in data set [20]: CC(=O)OCc1cn([C@H]2C[C@H](n3cc(C)c(=O)[nH]c3=O)O[C@@H]2CO)nn1
Particulars: Homo sapiens.

Substrate in data set [21]: Cc1cn([C@H]2C[C@H](N=[N+]=[N-])[C@@H](CO)O2)c(=O)[nH]c1=O
Particulars: Homo sapiens.

Substrate in data set [22]: CCCc1cn([C@H]2C[C@H](n3cc(C)c(=O)[nH]c3=O)O[C@@H]2CO)nn1
Particulars: Homo sapiens.

Substrate in data set [23]: Cc1cn([C@H]2C[C@H](n3cc(CCc4ccccc4)nn3)[C@@H](CO)O2)c(=O)[nH]c1=O
Particulars: Homo sapiens.

Turning to `Cc1cn([C@H]2C[C@H](n3cc(C(C)(C)C)nn3)[C@@H](CO)O2)c(=O)[nH]c1=O`, the Activity came out at 0.07% in data set [1], 4.7% in data set [2], 0.15% in data set [3] and 2.2% in data set [4].
In the same order, the values of `CCCCCc1cn([C@H]2C[C@H](n3cc(C)c(=O)[nH]c3=O)O[C@@H]2CO)nn1` are 0.3%, 7.2%, 1.6% and 1.9%.
Take `Cc1cn([C@H]2C[C@H](n3cc(Cc4ccccc4)nn3)[C@@H](CO)O2)c(=O)[nH]c1=O`: the IC50 in data set [5] was found to be 78 µM; against Thymidine kinase, 73 µM. Further, the Activity in data set [1] was determined as 0.1%; in data set [2] it was 11.6%; in data set [3], 0.8%; in [4], 4.8%.
In the case of `COCc1cn([C@H]2C[C@H](n3cc(C)c(=O)[nH]c3=O)O[C@@H]2CO)nn1`, the Activity in [2] was 1.6%; in data set [4], 1.3%.
As to `Cc1cn([C@H]2C[C@H](n3cc(-c4ccccn4)nn3)[C@@H](CO)O2)c(=O)[nH]c1=O`, it took 53 µM to reach half-maximal inhibition in data set [5] (IC50). Moreover, the Activity in data set [1] stood at 0.5%; in [2] it was 7.1%; in [3] it was 1.1%; in data set [4], 3.1%.
`Cc1cn([C@H]2C[C@H](n3cc(-c4ccccc4)nn3)[C@@H](CO)O2)c(=O)[nH]c1=O`: in data set [5], half-maximal inhibition (IC50) required 99 µM. For the same molecule, the Activity in data set [1] is 0.2%; in data set [2] it was 5.5%; in [3], 0.7%; in [4], 2.1%.
Regarding `Cc1cn([C@H]2C[C@H](N=[N+]=[N-])[C@@H](CO)O2)c(=O)[nH]c1=O`, the Activity worked out at 50% in data set [1], 27.8% in [2], 43% in data set [3] and 47.3% in [4].
On to `CCCc1cn([C@H]2C[C@H](n3cc(C)c(=O)[nH]c3=O)O[C@@H]2CO)nn1`, for which the Activity in data set [1] was 0.1%; in data set [2], 6.5%; in [3], 0.5%; in [4], 2.7%.
On to `CC(=O)OCc1cn([C@H]2C[C@H](n3cc(C)c(=O)[nH]c3=O)O[C@@H]2CO)nn1`, for which the Activity in data set [1] stood at 0.1%; in data set [2] it was 3.9%; in data set [3], 0.6%; in data set [4], 2.4%.
Regarding `Cc1cn([C@H]2C[C@H](n3cc(-c4ccc(F)cc4)nn3)[C@@H](CO)O2)c(=O)[nH]c1=O`, the IC50 in data set [5] is 44 µM; at Thymidine kinase it was 71 µM. In addition, the Activity in [1] turned out to be 1.1%; in [2] it was 13.7%; in data set [4], 2.6%.
On to `Cc1cn([C@H]2C[C@H](n3cc(CCO)nn3)[C@@H](CO)O2)c(=O)[nH]c1=O`, for which the results for the Activity in [2] and in [4] were 4.1% and 2.2%, respectively.
Turning to `Cc1cn([C@H]2C[C@H](n3cc(CCc4ccccc4)nn3)[C@@H](CO)O2)c(=O)[nH]c1=O`, the IC50 in data set [5] stood at 60 µM. The Activity in data set [1] came out at 0.08%; in data set [2], 12.3%; in data set [3] it was 0.8%; in [4], 2.4%.

B1: Thymidine kinase (Ureaplasma parvum serovar 3 (strain ATCC 700970)), Q9PPP5 (protein)
chain: T2 sequence (whole entry)
As for B1, the Michaelis constant (Km) in data set [6] came out at 32 µM; in data set [7] it was 40 µM; in data set [8], 85 µM; in [9], 30 µM; in data set [10], 259 µM; in data set [11] it was 78 µM. Also, the Km in [12] was 2.7 µM; in data set [13], 122 µM; in data set [14] it was 104 µM.

B2: Thymidine kinase, cytosolic (Homo sapiens), P04183 (protein)
chain: T1 sequence (whole entry)
As to B2, the Km stood at 75 µM in data set [15]; 57 µM in [16]; 174 µM in data set [17]; 33 µM in data set [18]; 243 µM in data set [19]; 114 µM in [20]. Also, the Km in data set [21] stood at 3.5 µM; in data set [22] it was 138 µM; in data set [23] it was 204 µM.

The record behind these values is ChEMBL document CHEMBL1158545, “3'-(1,2,3-Triazol-1-yl)-3'-deoxythymidine analogs as substrates for human and Ureaplasma parvum thymidine kinase for structure-activity investigations” (Bioorg Med Chem, 2010).
